In patent US20200253211A1, “PHOTODYNAMIC INHIBITION OF MICROBIAL PATHOGENS IN PLANTS” (SUNCOR ENERGY INC, priority 2017, published 2020):

How the values were obtained:
Format in all cases: cell-based
[1] = system: Alternaria solani mycelia; test: Photodynamic inhibition of Alternaria solani mycelia, percentage of dead samples after 7 days on agar
Protocol: (§1) In the experiments, Alternaria solani mycelia were grown in liquid medium for 24 hours. Small spheres of the mycelia (average diameter 2 mm) were incubated for 100 minutes with 100 μM of Mg-Chlorophyllin with 0 to 5 mM of Disodium-EDTA. Samples were illuminated with 395 nm (fluence 106.6 J cm^−2) for 120 mins and the radial growth of mycelial patches after 7 days on agar medium was measured. A sample was considered dead, if there was no growth observable after 7 days on agar plates.
as §1, with “Chlorin E6” for “100 μM of Mg-Chlorophyllin”, “or without” for “0 to”, “disodium-EDTA.” for “Disodium-EDTA.”
The protocol for the PDI of A. solani was as follows (for Experiment 2 and 5): • Grow A. solani on tomato-agar for some days. • Transfer parts of the growing mycelium form the edge of the A. solani (no conidia) to liquid tomato medium. • Incubate overnight at 26° C. under constant agitation. • Transfer the grown mycelia (spheres of mycelia, approximately 2 mm in diameter) to 24 well plates. • Add 500 microlitres of the PS to the well (PBS for the Co and light only controls). • Incubate under agitation for 100 minutes. • Illuminate under agitation for 120 minutes. • Transfer the treated mycelia to tomato-agar plates and incubate for one week at room temperature. • Evaluate by counting of dead samples.

Sclerotinia homoeocarpa = test: Radial growth of dollar spot fungus on amended Potato Dextrose Agar, dark vs light; conditions: rate 31 μM
Xanthomonas axonopodis = Xanthomonas axonopodis count after photodynamic treatment in liquid medium; conditions: Mg-Chlorophyllin alone; same protocol as Example 1
Protocol: Xanthomonas axonopodis are bacterial pathogens that cause citrus canker. Citrus canker is a highly contagious plant disease than can destroy an entire crop field. […] Positive results were obtained at several chlorophyllin concentrations and exposure times.
Xanthomonas were grown in liquid medium. Samples were incubated for 30 mins or 5 mins with Mg-Chlorophyllin and with Disodium-EDTA for 30 mins, and then illuminated with 395 nm (fluence 26.6 J cm−2) for 30 mins. CFU of the bacteria was counted on the plates.

E. Coli K-12 = test: E. Coli assay under LED lamps, colony count; conditions: light
Protocol: Regarding the E. Coli assay tests in the above examples, the following procedure was used: • 1. E. Coli K-12 inoculated in 5 mL TSB and placed in a shaking incubator overnight. • 2. Dilute culture in 500 mL PBS (˜10̂8 CFU/mL) and placed in shaking incubator for 30 minutes at […]. • 3.15 mL samples created using 12 mL culture and a mixture of PBS buffer and sample compounds. • 4. Placed under LED lamps for 2 hours (40 W/m^2). • 5. Samples diluted to 10^−4 and culture controls diluted to 10^−5 for plating through series dilutions. • 6. 0.1 mL plated of each sample in triplicates on TSA base (10^−3 and 10^−4 for samples. 10^−4 and 10^−5 for controls). • 7. Incubated overnight at 37° C. • 8. Colonies counted next morning and recorded.

Structure (SMILES): O=C(O)CN(CCN(CC(=O)O)CC(=O)O)CC(=O)O [EDTA, disodium EDTA]
- dead % ([1]; Table 2, EDTA 5 mM alone, in light): 0%
- dead % ([1]; Table 2, EDTA 5 mM alone, no light): 0%
- dead % ([1]; Table 2, EDTA 50 mM alone, in light): 0%
- dead % ([1]; Table 2, EDTA 50 mM alone, no light): 0%
- dead % ([1]; Table 2, EDTA 100 mM alone, in light): 0%
- dead % ([1]; Table 2, EDTA 100 mM alone, no light): 11.1%
- dead % ([1]; Table 2, EDTA 500 mM alone, in light): 0%
- dead % ([1]; Table 2, EDTA 500 mM alone, no light): 11.1%
- dead % ([1]; Table 5, light, 5 mM Na-EDTA alone): 0%
- dead % ([1]; Table 5, no light, 5 mM Na-EDTA alone): 0%

Structure (SMILES): C=Cc1c(C)c2cc3nc(c(CC(=O)[O-])c4[n-]c(cc5nc(cc1[n-]2)C(C)=C5CC)c(C)c4C(=O)[O-])C(CCC(=O)[O-])C3C.[Mg+2].[Na+].[Na+].[Na+] (stereo not drawn) [Mg-Chlorophyllin, Mg-chlorophyllin]
- dead % ([1]; Table 2, Mg-Chlorophyllin 100 μM without EDTA, in light): 11.5%
- % Inhibition (Sclerotinia homoeocarpa; Table 7A, dark): 24.1%
- Mean Radial Growth (Sclerotinia homoeocarpa; Table 7A, dark): 11.2 mm
- % Inhibition (Sclerotinia homoeocarpa; Table 7B, light): 51.0%
- Mean Radial Growth (Sclerotinia homoeocarpa; Table 7B, light): 6.6 mm
- % Inhibition (Sclerotinia homoeocarpa; Table 14A, dark): 32.5%
- Mean Radial Growth (Sclerotinia homoeocarpa; Table 14A, dark): 9.1 mm
- % Inhibition (Sclerotinia homoeocarpa; Table 14B, light): 59.2%
- Mean Radial Growth (Sclerotinia homoeocarpa; Table 14B, light): 5.3 mm
- % Inhibition (Sclerotinia homoeocarpa; Table 15A, dark): 32.5%
- Mean Radial Growth (Sclerotinia homoeocarpa; Table 15A, dark): 9.1 mm
- % Inhibition (Sclerotinia homoeocarpa; Table 15B, light): 59.2%
- Mean Radial Growth (Sclerotinia homoeocarpa; Table 15B, light): 5.3 mm
- control of Xanthomonas axonopodis (Xanthomonas axonopodis): little effect
- % Inactivation (E. Coli K-12; Table 10, 1 μM MgChln): 95.0%
- CFU/mL (E. Coli K-12; Table 10, 1 μM MgChln): 2.73E+05 CFU/mL
- LogCFU/mL (E. Coli K-12; Table 10, 1 μM MgChln): 5.44 LogCFU/mL
- % Inactivation (E. Coli K-12; Table 10, 10 μM MgChln): 97.6%
- CFU/mL (E. Coli K-12; Table 10, 10 μM MgChln): 1.30E+05 CFU/mL
- LogCFU/mL (E. Coli K-12; Table 10, 10 μM MgChln): 5.11 LogCFU/mL
- % Inactivation (E. Coli K-12; Table 11, 1 μM MgChln): 86.1%
- CFU/mL (E. Coli K-12; Table 11, 1 μM MgChln): 9.07E+05 CFU/mL
- LogCFU/mL (E. Coli K-12; Table 11, 1 μM MgChln): 5.96 LogCFU/mL
- % Inactivation (E. Coli K-12; Table 12, 1 μM MgChln): 91.3%
- CFU/mL (E. Coli K-12; Table 12, 1 μM MgChln): 6.13E+05 CFU/mL
- LogCFU/mL (E. Coli K-12; Table 12, 1 μM MgChln): 5.79 LogCFU/mL
